Results from PubChem BioAssay (NCI).
Several values for one entry are separate records, joined by “and”; a condition that tells them apart may be missing. Equal values may be shown once.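 In this assay, cells in 96-well plates receive the compound at five concentrations for 48 hours. Endpoints are linearly interpolated between the surrounding concentrations. Here, GI50 denotes the concentration required for 50% inhibition of growth. TGI denotes the concentration required for complete inhibition of growth.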

How the values were obtained:
Assay in all cases: growth of human tumour cells (NCI), 48 h
SNB-75 CNS = test system: SNB-75 CNS
M14 melanoma = test system: M14 melanoma
MCF7 breast = test system: MCF7 breast
HL-60(TB) leukemia = test system: HL-60(TB) leukemia
HT29 colon = test system: HT29 colon
EKVX NSCLC = test system: EKVX NSCLC
SK-MEL-5 melanoma = test system: SK-MEL-5 melanoma
T-47D breast = test system: T-47D breast
COLO 205 colon = test system: COLO 205 colon
NCI-H23 lung = test system: NCI-H23 lung

Row | Structure (SMILES) | GI50 (SNB-75 CNS) | TGI (SNB-75 CNS) | GI50 (M14 melanoma) | TGI (M14 melanoma) | GI50 (MCF7 breast) | TGI (MCF7 breast) | GI50 (HL-60(TB) leukemia) | TGI (HL-60(TB) leukemia) | GI50 (HT29 colon) | TGI (HT29 colon) | GI50 (EKVX NSCLC) | TGI (EKVX NSCLC) | GI50 (SK-MEL-5 melanoma) | TGI (SK-MEL-5 melanoma) | GI50 (T-47D breast) | TGI (T-47D breast) | GI50 (COLO 205 colon) | TGI (COLO 205 colon) | GI50 (NCI-H23 lung) | TGI (NCI-H23 lung)
1 | O=S(=O)(NC1=NCCN1C(=S)SN1CCn2c1nsc2=S)c1ccccc1Cl | 13.3 µM | 55.6 µM | 12.8 µM | 27.1 µM | 11.5 µM | > 100 µM | 0.342 µM | 8.62 µM | 15.4 µM | > 100 µM | 36.6 µM | > 100 µM | 15.8 µM | 31.1 µM | 17 µM | > 100 µM | 15.1 µM | 55 µM | – | –
2 | NS(=O)(=O)c1ccc(-n2ncc3c(Nc4ccccc4)ncnc32)cc1 | 33.5 µM | > 100 µM | 32.8 µM | > 100 µM | 49.2 µM | > 100 µM | 6.59 µM | 92.7 µM | 3.33 µM | 15.7 µM | 41.4 µM | > 100 µM | 24.4 µM | > 100 µM | 24.2 µM | > 100 µM | 21.1 µM | > 100 µM | 1.37 µM | 23.8 µM
3 | O=C(CNc1ccc2c(=S)c3ccccc3[nH]c2c1)Nc1ccccc1-c1ccccc1NC(=O)CNc1ccc2c(=S)c3ccccc3[nH]c2c1 | – | 71.9 µM | – | 41.4 µM | – | > 52.7 µM | – | 13.4 µM | – | 48.4 µM | – | 65.6 µM | – | 35.3 µM | – | > 50.1 µM | – | 35.8 µM | – | 32.3 µM
4 | COc1c(Cl)ccc2c(-c3nc4cc(Cl)c(F)cc4s3)cc(=O)oc12 | 1.56 µM | 3.28 µM | 26.7 µM | > 100 µM | 9.13 µM | > 79 µM | 2.44 µM | 5.39 µM | 2.76 µM | 6.54 µM | – | – | 26.5 µM | > 88.4 µM | 13 µM | 45.5 µM | 10.1 µM | 38.3 µM | 3.25 µM | > 73.7 µM
5 | COc1cccc(CCC(=O)c2cc3c(N)c(C(=O)Nc4cccc(Cl)c4C)sc3nc2C)c1 | 0.193 µM | 1.54 µM | 0.446 µM | > 100 µM | 0.336 µM | > 100 µM | 0.543 µM | > 100 µM | 0.338 µM | – | 0.998 µM | > 100 µM | 0.65 µM | 11 µM | 0.588 µM | > 100 µM | 0.661 µM | > 45.9 µM | 2.35 µM | > 100 µM
6 | CCC1(NC(=O)c2cc(F)c(F)c(F)c2F)C(=O)NC(=O)N(C(C)C)C1=O (stereo unspecified) | 21.3 µM | 45.9 µM | 10.3 µM | 34.6 µM | > 100 µM | > 100 µM | 3.82 µM | 24.9 µM | 22.6 µM | > 100 µM | 24.6 µM | 97 µM | 16.8 µM | 33 µM | > 100 µM | > 100 µM | 27.5 µM | > 100 µM | 16.5 µM | 61.5 µM
7 | COc1cc(C2CC(=O)Nc3c2ccc2ccccc32)cc(Br)c1OC (stereo unspecified) | 0.224 µM | 2.43 µM | 0.308 µM | 2.7 µM | 0.343 µM | > 40.6 µM | 0.212 µM | 0.462 µM | 0.37 µM | 18.2 µM | – | – | 0.414 µM | 9.93 µM | 0.811 µM | > 100 µM | 0.369 µM | 1.35 µM | 0.565 µM | > 100 µM
8 | c1ccc(B2OCC(C3OB(c4ccccc4)OC4COB(c5ccccc5)OC43)O2)cc1 (stereo unspecified) | – | > 100 µM | – | > 100 µM | – | > 100 µM | – | – | – | > 100 µM | – | > 100 µM | – | > 100 µM | – | > 100 µM | – | > 100 µM | – | > 100 µM
9 | FC(F)(F)c1cccc2c(SCCc3n[nH]c(=S)o3)ccnc12 | 36.3 µM | > 100 µM | – | – | 41.6 µM | > 100 µM | 67.8 µM | > 100 µM | 64.2 µM | > 100 µM | 27.6 µM | > 100 µM | 19.5 µM | 44.1 µM | 29.3 µM | 93.3 µM | 64.8 µM | > 100 µM | 40 µM | > 100 µM
10 | CSc1ccc(SC2c3ccc(C)cc3Oc3nc(N)c(C#N)c(N)c32)cc1 (stereo unspecified) | 2.2 µM | 7.34 µM | 1.86 µM | 3.64 µM | 1.84 µM | 4.34 µM | 2.12 µM | 4.42 µM | 2.11 µM | 4.37 µM | 1.6 µM | 2.99 µM | 1.76 µM | 3.15 µM | 1.9 µM | 4.84 µM | – | – | 1.69 µM | 3.22 µM
11 | COc1ccc(Cn2cc3c(c2-c2cc(OC)c(OC)c(OC)c2)CCc2cnoc2-3)cc1N | – | – | 0.0507 µM | > 100 µM | 0.036 µM | > 40 µM | 0.0268 µM | 0.184 µM | 0.307 µM | 1.71 µM | 0.235 µM | > 100 µM | 0.0325 µM | 1.24 µM | 0.034 µM | > 100 µM | 0.251 µM | 0.789 µM | 0.0507 µM | > 100 µM
12 | Cn1cnc2c(F)c(Nc3ccc(Br)cc3F)c(C(=O)NOCCO)cc21 | – | – | 0.0175 µM and 0.0233 µM | 0.307 µM | > 100 µM | > 100 µM | 0.0193 µM and 0.0192 µM | > 100 µM | 0.0263 µM and 0.0316 µM | > 100 µM | 0.109 µM and 0.503 µM | > 100 µM | 0.787 µM and 0.414 µM | > 100 µM | > 100 µM | > 100 µM | 0.0113 µM and 0.0236 µM | – | 0.227 µM and 0.215 µM | > 100 µM
13 | COc1cc(NC(=O)NCc2ccco2)ccc1-c1ccc(NC(=O)NCc2ccco2)cc1OC | 1.02 µM | 4 µM | 3.2 µM | 38.2 µM | 1.49 µM | 4.68 µM | > 100 µM | > 100 µM | – | – | 3.26 µM | 31 µM | 0.93 µM | 21.4 µM | 2.38 µM | > 100 µM | 3.1 µM | > 100 µM | 2.99 µM | 11 µM
